Reference: patent US7087620B2, “Liquid pharmaceutical formulations containing 3,7-diazabicyclo[3,3,1]nonane compounds and methods of treatment relating to anti-arrhythmic events” (Solvay Pharmaceuticals GmbH, priority 2002, dated 2006)
Where two headings read alike, the source gives them in different places.

Experiments:
[1] = Two step infusion study in healthy male subjects: pharmacokinetics (Tedisamil plasma concentration); assay type: in vivo; settings: human; for Tmax: male, iv, 0.4 mg/kg, after start of infusion, 0.4 mg/kg iv two step infusion
Method: A double-blind, placebo-controlled, randomized, single iv dose, two periods cross-over study to assess the safety, tolerability, pharmacodynamics and pharmacokinetics during and following a two step infusion of Tedisamil in healthy male subjects was performed with the following drug and dosages: Tedisamil dihydrochloride/0.4 mg/kg body weight infused over 30 minutes.
Subjects were included in the study only if they were healthy males, their age was in the range of 18-40 years (both inclusive), their body mass index (BMI) was between 18 kg/m^2 and 28 kg/m^2. Test product, dose and mode of administration: Tedisamil dihydrochloride; Strength: 2 mg/ml; Dose: 0.4 mg/kg body weight infused over 30 minutes, with half of the dose infused over 10 minutes and half of the dose infused over the remaining 20 minutes. Route: intravenous.
Blood samples for determination of Tedisamil plasma concentration were taken at several time points during and following intravenous drug administration in both study periods. The following pharmacokinetic parameters were determined: AUC(0-inf), AUC(0-t), Cmax, Tmax, t1/2, λz, Vss, CL, MRT and the number of data points considered for the determination of terminal half life.
Geometric means and corresponding 90% confidence intervals were calculated for the plasma concentration of tedisamil at each time-point, for AUC, AUC(0-t), CL, and Cmax.
Arithmetic means and corresponding 90% confidence intervals were calculated for the other variables (Vss, λz, t1/2, MRT). Tmax was described using minimum, median, maximum, and frequency counts. Individual and mean plasma-concentration versus time curves were plotted using both linear and semi-logarithmic scale.

[2] = system: patients with atrial fibrillation; assay: Placebo-controlled ascending dose study of intravenous tedisamil: conversion to normal sinus rhythm, patients with atrial fibrillation; assay type: in vivo, human; settings: for Conversion to NSR at any time within 2.5 hrs after the start of infusion (patients converted out of total) / Conversion to NSR at any time within 2.5 hrs and remaining in NSR until 2.5 hrs after the start of infusion (patients out of total) / Conversion to NSR at any time within 2.5 hrs and remaining in NSR until 2.5 hrs after the start of infusion (percentage of patients) / Conversion to NSR at any time within 2.5 hrs and remaining in NSR until 24 hrs after the start of infusion (patients out of total) / Conversion to NSR at any time within 2.5 hrs and remaining in NSR until 24 hrs after the start of infusion (percentage of patients) / Conversion to NSR at any time within 24 hrs after the start of infusion (patients out of total) / Conversion to NSR at any time within 24 hrs after the start of infusion (percentage of patients) / Conversion to NSR at any time within 24 hrs and remaining in NSR until 24 hrs after the start of infusion (patients out of total) / Conversion to NSR at any time within 24 hrs and remaining in NSR until 24 hrs after the start of infusion (percentage of patients): patients with atrial fibrillation; for Percentage of patients converted to normal sinus rhythm at any time within 2.5 hours after the initiation of the infusion: patients with atrial fibrillation taking beta-blockers
Method: A Multi-Center, Double-Blind, Randomized, Placebo-Controlled, Sequential Ascending Dose Groups Study to evaluate the Efficacy and Safety of Intravenous Tedisamil in the Rapid Conversion to Normal Sinus Rhythm in Patients with Atrial Fibrillation or Flutter was performed.
• Tedisamil (0.4 mg/kg body weight) • Tedisamil (0.6 mg/kg body weight) • Placebo • Dosages were given as a 30 minute intravenous infusion regimen. 1. Study Design
This multicenter trial was a double-blind, randomized, placebo-controlled, ascending dose groups study comparing the efficacy and safety of intravenous tedisamil treatment versus placebo in symptomatic patients with atrial fibrillation or flutter (>3 hours and <48 hours). The primary efficacy endpoint of this study was the termination of atrial fibrillation or flutter (for at least 60 seconds) within 2.5 hours after start of the infusion.
Following screening and baseline assessments, eligible patients were randomized to tedisamil or placebo with a sequential dose escalation approach. In the first stage, patients received 0.4 mg tedisamil/kg body weight or placebo over a 30 minutes infusion period, with half the dose infused during the first 10 minutes and half the dose infused over the remaining 20 minutes. After interim safety evaluation, in the second stage, patients received 0.6 mg tedisamil/kg body weight or placebo, with the same infusion regimen.
Patients were discharged from the telemetry unit 24 hours post infusion and safety follow up was to be obtained after 28 days. Blinded reviews of 12-lead ECGs (including 60 seconds rhythm strip) and 24 hour Holters to adjudicate the clinical endpoint (conversion to normal sinus rhythm) were performed centrally according to standard guidelines.
Tedisamil dihydrochloride, 0.4 mg/kg body weight, 0.6.mg/kg body weight was administered intravenously. The total infusion time was 30 minutes, with half the dose infused within 10 minutes, and half the dose infused within the remaining 20 minutes.
The percentage of patients converted to normal sinus rhythm (for at least 60 seconds) at any time within 2.5 hours after the initiation of the infusion of study drug.
6.1.2 Secondary Efficacy • The percentage of patients converted to normal sinus rhythm (for at least 60 seconds) at any time within 2.5 hrs and remaining in sinus rhythm until 2.5 hours after initiation of the intravenous infusion of tedisamil versus placebo. • The percentage of patients converted to normal sinus rhythm (for at least 60 seconds) at any time within 24 hours after initiation of the intravenous infusion of tedisamil versus placebo. • The percentage of patients converted to normal sinus rhythm (for at least 60 seconds) at any time within 24 hrs and remaining in sinus rhythm until 24 hours after initiation of the intravenous infusion of tedisamil versus placebo. • The percentage of patients converted to normal sinus rhythm (for at least 60 seconds) at any time within 2.5 hrs and remaining in sinus rhythm until 24 hours after initiation of the intravenous infusion of tedisamil versus placebo. • The time to conversion after the start of the infusion of tedisamil versus placebo. • The dose- and concentration-response relationships of tedisamil versus placebo.
The intent-to-treat patient sample was analyzed for efficacy. All tests were two-sided and a p-value <0.05 was considered significant. Differences in percentages of conversion were compared among the treatment groups using the Pearson chi-square statistic. Safety analysis was conducted on the safety patient sample. Numbers and percentages of patients with adverse events were calculated for each treatment group, using MedDRA preferred terms and body systems. Descriptive statistics were summarized by treatment group for changes from baseline in QT, heart rate and blood pressure. […]

[3] = 0.4 mg/kg iv two-step 30 minute infusion
[4] = 0.6 mg/kg iv two-step 30 minute infusion
[5] = Atrial Fibrillation, Female, 0.4 mg/kg, ITT patient sample, patients with DC cardioversion excluded
[6] = Atrial Fibrillation, Female, 0.6 mg/kg, ITT patient sample, patients with DC cardioversion excluded
[7] = Atrial Fibrillation, Male, 0.4 mg/kg, ITT patient sample, patients with DC cardioversion excluded
[8] = Atrial Fibrillation, Male, 0.6 mg/kg, ITT patient sample, patients with DC cardioversion excluded
[9] = atrial fibrillation, Female, <65 yrs, 0.4 mg/kg, ITT, DC cardioversion excluded
[10] = atrial fibrillation, Female, <65 yrs, 0.6 mg/kg, ITT, DC cardioversion excluded
[11] = atrial fibrillation, Female, >=65 yrs, 0.4 mg/kg, ITT, DC cardioversion excluded
[12] = atrial fibrillation, Female, >=65 yrs, 0.6 mg/kg, ITT, DC cardioversion excluded
[13] = atrial fibrillation, Male, <65 yrs, 0.4 mg/kg, ITT, DC cardioversion excluded
[14] = atrial fibrillation, Male, <65 yrs, 0.6 mg/kg, ITT, DC cardioversion excluded
[15] = atrial fibrillation, Male, >=65 yrs, 0.4 mg/kg, ITT, DC cardioversion excluded
[16] = atrial fibrillation, Male, >=65 yrs, 0.6 mg/kg, ITT, DC cardioversion excluded

SMILES: C1CCC2(C1)C1CN(CC3CC3)CC2CN(CC2CC2)C1 [Tedisamil, N,N′-dicyclopropylmethyl-9,9-tetramethylene-3,7-diazabicyclo[3,3,1]nonane]
- AUC(0-inf) ([1]; 0.4 mg/kg tedisamil dihydrochloride iv, two step infusion over 30 minutes, read-out: AUC(0-inf), Geom. Mean): 1720 ng·h/mL
- AUC(0-t) ([1]; 0.4 mg/kg tedisamil dihydrochloride iv, two step infusion over 30 minutes, read-out: AUC(0-t), Geom. Mean): 1670 ng·h/mL
- clearance ([1]; 0.4 mg/kg tedisamil dihydrochloride iv, two step infusion over 30 minutes, read-out: CL, Geom. Mean): 315 mL/min
- Cmax ([1]; 0.4 mg/kg tedisamil dihydrochloride iv, two step infusion over 30 minutes, read-out: Cmax, Geom. Mean): 905 ng/mL
- half-life ([1]; 0.4 mg/kg tedisamil dihydrochloride iv, two step infusion over 30 minutes, read-out: t½, Arithmetic mean (converted)): 330 min
- Tmax ([1]; read-out: Time of peak plasma concentration (Tmax), median (converted)): 12.5 min
- Tmax ([1]; read-out: Time of peak plasma concentration (Tmax), range): 5 to 75 min
- Conversion to NSR at any time within 2.5 hrs after the start of infusion (patients converted out of total) [2, 3]: 24 out of 52
- Conversion to NSR at any time within 2.5 hrs and remaining in NSR until 2.5 hrs after the start of infusion (patients out of total) [2, 3]: 23 out of 52
- Conversion to NSR at any time within 2.5 hrs and remaining in NSR until 2.5 hrs after the start of infusion (percentage of patients) [2, 3]: (44%)
- Conversion to NSR at any time within 2.5 hrs and remaining in NSR until 24 hrs after the start of infusion (patients out of total) [2, 3]: 22 out of 42
- Conversion to NSR at any time within 2.5 hrs and remaining in NSR until 24 hrs after the start of infusion (percentage of patients) [2, 3]: (52%)
- Conversion to NSR at any time within 24 hrs after the start of infusion (patients out of total) [2, 3]: 26 out of 42
- Conversion to NSR at any time within 24 hrs after the start of infusion (percentage of patients) [2, 3]: (62%)
- Conversion to NSR at any time within 24 hrs and remaining in NSR until 24 hrs after the start of infusion (patients out of total) [2, 3]: 24 out of 42
- Conversion to NSR at any time within 24 hrs and remaining in NSR until 24 hrs after the start of infusion (percentage of patients) [2, 3]: (57%)
- Conversion to NSR at any time within 2.5 hrs after the start of infusion (patients converted out of total) [2, 4]: 24 out of 42
- Conversion to NSR at any time within 2.5 hrs and remaining in NSR until 2.5 hrs after the start of infusion (patients out of total) [2, 4]: 24 out of 42
- Conversion to NSR at any time within 2.5 hrs and remaining in NSR until 2.5 hrs after the start of infusion (percentage of patients) [2, 4]: (57%)
- Conversion to NSR at any time within 2.5 hrs and remaining in NSR until 24 hrs after the start of infusion (patients out of total) [2, 4]: 22 out of 37
- Conversion to NSR at any time within 2.5 hrs and remaining in NSR until 24 hrs after the start of infusion (percentage of patients) [2, 4]: (59%)
- Conversion to NSR at any time within 24 hrs after the start of infusion (patients out of total) [2, 4]: 26 out of 37
- Conversion to NSR at any time within 24 hrs after the start of infusion (percentage of patients) [2, 4]: (70%)
- Conversion to NSR at any time within 24 hrs and remaining in NSR until 24 hrs after the start of infusion (patients out of total) [2, 4]: 24 out of 37
- Conversion to NSR at any time within 24 hrs and remaining in NSR until 24 hrs after the start of infusion (percentage of patients) [2, 4]: (65%)
- Conversion to NSR at any time within 2.5 hrs after start of infusion (%) [2, 5]: 35.3%
- Conversion to NSR at any time within 2.5 hrs after start of infusion (converted/total) [2, 5]: 6/17
- Conversion to NSR at any time within 2.5 hrs after start of infusion (%) [2, 6]: 37.5%
- Conversion to NSR at any time within 2.5 hrs after start of infusion (converted/total) [2, 6]: 6/16
- Conversion to NSR at any time within 2.5 hrs after start of infusion (%) [2, 7]: 51.4%
- Conversion to NSR at any time within 2.5 hrs after start of infusion (converted/total) [2, 7]: 18/35
- Conversion to NSR at any time within 2.5 hrs after start of infusion (%) [2, 8]: 69.2%
- Conversion to NSR at any time within 2.5 hrs after start of infusion (converted/total) [2, 8]: 18/26
- Conversion to NSR at any time within 2.5 hrs after start of infusion (%) [2, 9]: 40.0%
- Conversion to NSR at any time within 2.5 hrs after start of infusion (converted/total) [2, 9]: 2/5
- Conversion to NSR at any time within 2.5 hrs after start of infusion (%) [2, 10]: 33.3%
- Conversion to NSR at any time within 2.5 hrs after start of infusion (converted/total) [2, 10]: 1/3
- Conversion to NSR at any time within 2.5 hrs after start of infusion (%) [2, 11]: 33.3%
- Conversion to NSR at any time within 2.5 hrs after start of infusion (converted/total) [2, 11]: 4/12
- Conversion to NSR at any time within 2.5 hrs after start of infusion (%) [2, 12]: 38.5%
- Conversion to NSR at any time within 2.5 hrs after start of infusion (converted/total) [2, 12]: 5/13
- Conversion to NSR at any time within 2.5 hrs after start of infusion (%) [2, 13]: 50.0%
- Conversion to NSR at any time within 2.5 hrs after start of infusion (converted/total) [2, 13]: 10/20
- Conversion to NSR at any time within 2.5 hrs after start of infusion (%) [2, 14]: 72.2%
- Conversion to NSR at any time within 2.5 hrs after start of infusion (converted/total) [2, 14]: 13/18
- Conversion to NSR at any time within 2.5 hrs after start of infusion (%) [2, 15]: 51.4%
- Conversion to NSR at any time within 2.5 hrs after start of infusion (converted/total) [2, 15]: 8/15
- Conversion to NSR at any time within 2.5 hrs after start of infusion (%) [2, 16]: 62.5%
- Conversion to NSR at any time within 2.5 hrs after start of infusion (converted/total) [2, 16]: 5/8
- Percentage of patients converted to normal sinus rhythm at any time within 2.5 hours after the initiation of the infusion ([2]; 0.4 mg group): 52%
- Percentage of patients converted to normal sinus rhythm at any time within 2.5 hours after the initiation of the infusion ([2]; 0.6 mg group): 60%
